Several values for one entry are separate records, joined by “and”; a condition that tells them apart may be missing. Equal entries are not always repeated. Entries after “also recorded” stand apart in the source; their conditions may differ. Where two headings read alike, the source gives them in different places. Each block holds one compound with its values, some of them ahead of it.
Legend:
TSPO [1] = settings: cited from earlier work
in vitro = settings: plasma, pH 7.4
Method: (§1) Plasma protein binding was measured by equilibrium dialysis using 96‐well plate blocks with 2 compartments separated by a vertical cylinder of dialysis membrane (molecular weight cut off ~8000 Da; ThermoFisher Scientific). […] The unit was covered and incubated at 37°C on an orbital shaker for 4 hours. After incubation, samples from both plasma (bound) chamber and the buffer (free) chamber were taken and matrix‐matched by addition of the alternative blank matrix. Acetonitrile containing internal standard was added to all samples. […] The ratio of responses in free to bound samples equates to the free fraction.

[2] = Plasma protein binding by equilibrium dialysis; settings: plasma spiked at 1 μM, 37°C, 4 hours, mean (SEM)
Method: as §1

[3] = set-up: method as in PMID 19541954; settings: cited from earlier work
[4] = Open-label clinical pharmacokinetic study of oral XBD173 and etifoxine in healthy volunteers (plasma LC-MSMS); type: in vivo, human; settings: for AUClast / concentration at 30 min / concentration at 60 min / concentration at 120 min / concentration at 180 min / concentration at 240 min / AUC(0-t) / Cmax / Tmax / AUC0‐4 h / AUC: plasma; for Adverse events: 4 healthy volunteers, XBD173 90 mg once daily 7 days and etifoxine 50 mg TDS 7 days; for concentration at 30 min / concentration at 60 min / concentration at 120 min / concentration at 180 min / concentration at 240 min / AUC(0-t) / Cmax / Tmax / AUC: human, po; for AUC: read-out: AUC0‐4 h
Method: This was a single centre, open‐label study enrolling 4 adult healthy volunteers (aged 35–65 y) irrespective of rs6971 genotype. Detailed inclusion and exclusion criteria are shown in the supplementary information. […] As a precaution, therefore, a long washout period was chosen. The first dose was taken at the clinical research facility and the participant was monitored for 4 hours. Subsequent doses were taken at home by the participant. On day 7, the participant returned for a final assessment. […] The PI of the study was Paul M. Matthews (DPhil, FRCP, FMedSci) who is an author on the manuscript.
Plasma samples for pharmacokinetic analysis were obtained on day 1 at 0.5, 1, 2, 3, 4 hours following the first dose. […] Plasma samples were stored at −20°C or lower until analysis. Plasma samples (25 μL) were prepared for analysis by protein precipitation with acetonitrile containing internal standard (tolbutamide; 200 μL) followed by mixing (150 rpm, 15 min) and centrifugation (1500 g, 15 min). The supernatant (50) μL was diluted with water (100 μL) and mixed (100 rpm, 15 min). […] Injection volume was 1 μL.

TSPO [5] = test: Estimates of TSPO occupancy from plasma concentration and binding affinity; set-up: species or system human; settings: 90 mg oral XBD173
[6] = target: γ‐aminobutyric acid‐a receptor; settings: rodent brain; cited from earlier work
[7] = test system: experimental autoimmune encephalomyelitis mouse model; settings: cited from earlier work
TSPO [8] = target: TSPO (Homo sapiens, UniProt P30536); test: Competition radioligand binding with [3H]PK11195 in human brain membranes
Method: The assay was terminated via filtration through Whatman GF/B filters. Scintillation fluid (4 mL/vial, Perkin Elmer Ultima‐Gold MV) was added and vials counted on a Perkin Elmer Tricarb 2900 liquid scintillation counter.
Tissue was obtained from 8 donors from the UK Multiple Sclerosis (MS) Tissue Bank at Imperial College. […] The tissue was stored at -80 °C until use.
Tissue blocks were homogenised in 10 times weight for volume (w/v) buffer (0.32mM sucrose, 5mM Tris base, 1mM MgCl2, pH 7.4, 4 °C). Homogenates were centrifuged (32,000g, 20min, 4 °C) followed by removal of the supernatant. Pellets were re-suspended in at least 10 times w/v buffer (50mM Tris base, 1mM MgCl2, pH 7.4, 4 °C) followed by two washes by centrifugation (32,000g, 20min, 4 °C). Membranes were suspended in buffer (50mM Tris base, 1mM MgCl2, pH 7.4, 4 °C) at a protein concentration of approximately 4 mg protein/ml and aliquots were stored at -80 °C until use.
All competition data were analysed using the iterative non-linear regression curve fitting software supplied with GraphPad Prism 8.1. A single site competition model was fitted to the data using the least squares algorithm. […] Data are expressed as the mean ± standard error of the mean (SEM). The Student’s t-test (GraphPad Prism 8.1) was used to determine statistical significance.

TSPO [9] = settings: cited from earlier work; remark: listed apart in the source
[10] = Solubility limitation of etifoxine in binding assay; type: physicochemical; settings: assay buffer pH 7.4
Method: The specific binding component was determined using unlabelled PK11195 (10µM). Following incubation, assays were terminated via filtration through Whatman GF/B filters, followed by 3 x 1 ml washes with ice-cold wash buffer (50mM Tris Base, 1.4mM MgCl2, pH 7.4, 4 °C). Whatman GF/B filters were pre-incubated with 0.05% polyethyleneimine (60min) before filtration. Scintillation fluid (4ml/vial, Perkin Elmer Ultima Gold MV) was added and vials counted on a Perkin Elmer Tricarb 2900 liquid scintillation counter. For each donor, each point was performed in quadruplicate. Ki (nM) values were determined using GraphPad Prism 8.1 software (GraphPad Software Inc, USA).

[11] = test system: γ‐aminobutyric acid‐a receptor; settings: cited from earlier work
[12] = 90 mg, 90mg XBD173 single oral dose, participant 2
[13] = 90 mg, 90mg XBD173 single oral dose, Mean (SEM)
[14] = 90 mg, 90mg XBD173 single oral dose, participant 1
[15] = 90 mg, 90mg XBD173 single oral dose, participant 3
[16] = 90 mg, 90mg XBD173 single oral dose, participant 4
[17] = 90 mg, 90 mg XBD173 single oral dose, Median of 4 participants
[18] = 90 mg, 90 mg XBD173 single oral dose, participant 1
[19] = 90 mg, 90 mg XBD173 single oral dose, participant 2
[20] = 90 mg, 90 mg XBD173 single oral dose, participant 3
[21] = 90 mg, 90 mg XBD173 single oral dose, participant 4
[22] = 50 mg, 50mg etifoxine single oral dose, participant 2
[23] = 50 mg, 50mg etifoxine single oral dose, Mean (SEM)
[24] = 50 mg, 50mg etifoxine single oral dose, participant 3
[25] = 50 mg, 50mg etifoxine single oral dose, participant 4
[26] = 50 mg, 50mg etifoxine single oral dose, participant 1
[27] = 50 mg, 50 mg etifoxine single oral dose, Median of 4 participants
[28] = 50 mg, 50 mg etifoxine single oral dose, participant 1
[29] = 50 mg, 50 mg etifoxine single oral dose, participant 2
[30] = 50 mg, 50 mg etifoxine single oral dose, participant 3
[31] = 50 mg, 50 mg etifoxine single oral dose, participant 4

Chain of TSPO (Homo sapiens, UniProt P30536) (P30536 2-169): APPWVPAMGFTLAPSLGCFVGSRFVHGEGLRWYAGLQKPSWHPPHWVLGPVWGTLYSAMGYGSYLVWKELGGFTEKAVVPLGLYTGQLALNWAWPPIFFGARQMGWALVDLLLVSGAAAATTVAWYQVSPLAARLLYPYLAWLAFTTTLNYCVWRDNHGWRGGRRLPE

fraction unbound at 4 h, 1 μM (in vitro): 0.0034
Fraction in plasma bound [2]: 99.66%
AUClast ([4]; 90 mg XBD173 single oral dose, Max of 4 participants): 556 ng·h/mL
AUClast ([4]; 90 mg XBD173 single oral dose, Min of 4 participants): 74 ng·h/mL
Estimate of plasma concentration (total) ([4]; 90 mg oral XBD173): ~ 320 nM
concentration at 30 min [4, 12]: 5.7 ng/mL
concentration at 60 min [4, 13]: 31.2 ng/mL
concentration at 60 min [4, 14]: 28.4 ng/mL
concentration at 60 min [4, 12]: 15.4 ng/mL
concentration at 60 min [4, 15]: 62.7 ng/mL
concentration at 60 min [4, 16]: 18.4 ng/mL
concentration at 120 min [4, 13]: 106 ng/mL
concentration at 120 min [4, 14]: 55.8 ng/mL
concentration at 120 min [4, 12]: 24.2 ng/mL
concentration at 120 min [4, 15]: 263 ng/mL
concentration at 120 min [4, 16]: 82.7 ng/mL
concentration at 180 min [4, 13]: 99.7 ng/mL
concentration at 180 min [4, 14]: 43.3 ng/mL
concentration at 180 min [4, 12]: 23 ng/mL
concentration at 180 min [4, 15]: 161 ng/mL
concentration at 180 min [4, 16]: 171 ng/mL
concentration at 240 min [4, 13]: 87.6 ng/mL
concentration at 240 min [4, 14]: 40.4 ng/mL
concentration at 240 min [4, 12]: 24.5 ng/mL
concentration at 240 min [4, 15]: 139 ng/mL
concentration at 240 min [4, 16]: 146 ng/mL
AUC(0-t) [4, 17]: 247 ng·h/mL
Cmax [4, 17]: 114 ng/mL
Tmax [4, 17]: 2.5 h
AUC(0-t) [4, 18]: 148 ng·h/mL
Cmax [4, 18]: 56 ng/mL
Tmax [4, 18]: 2 h
AUC(0-t) [4, 19]: 74 ng·h/mL
Cmax [4, 19]: 25 ng/mL
Tmax [4, 19]: 4 h
AUC(0-t) [4, 20]: 556 ng·h/mL
Cmax [4, 20]: 263 ng/mL
Tmax [4, 20]: 2 h
AUC(0-t) [4, 21]: 345 ng·h/mL
Cmax [4, 21]: 171 ng/mL
Tmax [4, 21]: 3 h
Predicted TSPO occupancy (TSPO [5]; from free plasma concentration, in HABs): ~ 30%
Predicted TSPO occupancy from total plasma concentration (TSPO [5]; total plasma concentration ~320 nM): > 99%
Structure (SMILES): CCN(Cc1ccccc1)C(=O)Cn1c(=O)n(C)c2cnc(-c3ccccc3)nc21 [XBD173]
Affinity for TSPO in the human brain (TSPO [1]): 2 to 3 nM
Peak plasma concentrations ([3]; 90‐mg dose): micromolar range
Plasma concentration reached ([3]; 90‐mg dose): 1000 nM
Accumulation on repeated dosing [3]: does not accumulate
Adverse events [4]: No adverse events were reported

Structure (SMILES): CCNC1=Nc2ccc(Cl)cc2C(C)(c2ccccc2)O1 (centres unmarked) [etifoxine]
IC50 [6]: ~6.7 µM
Clinical scores [7]: improved clinical scores
Ki (TSPO [8]; read-out: Affinity of etifoxine for TSPO estimated here, value used for the occupancy estimate): 7.6 µM
Ki (TSPO [8]; read-out: Estimated Ki for the whole population, single site binding curve, human brain tissue, 8 donors (4 HABs, 4 LABs), 95% CI 4.5–14.6 μM, competition curve did not fully plateau): 7.8 µM and ~7.8 µM
Ki (TSPO [8]; read-out: Mean Ki, human brain tissue, high affinity binders (HABs), n = 4, [3H]PK11195 0.3 nM): 7.6 ± 2.2 µM
Fraction in plasma bound [2]: 99.71%
Plasma free fraction [2]: 0.29%
Binding affinity for TSPO (TSPO [9]; rodent heart): 22.5 µM
Binding affinity for TSPO (TSPO [9]; rodent kidney): 14 µM and 9 µM
Highest concentration that could be studied due to limitations of solubility [10]: ≤ 30 µM
Concentration above which pharmacodynamic actions at the receptor are elicited [11]: above 1 μM
AUC0‐4 h ([4]; 50 mg etifoxine single oral dose, Max of 4 participants): 83 ng·h/mL
AUC0‐4 h ([4]; 50 mg etifoxine single oral dose, Min of 4 participants): 59 ng·h/mL
Adverse events [4]: No adverse events were reported
Accumulation after multiple doses ([4]; etifoxine 50 mg TDS for 7 days, day 7 vs day 1 plasma concentration): did not find evidence for significant etifoxine accumulation; also recorded: did not find evidence for drug accumulation
concentration at 30 min [4, 22]: 4 ng/mL
concentration at 60 min [4, 23]: 8.2 ng/mL
concentration at 60 min [4, 22]: 15.9 ng/mL
concentration at 60 min [4, 24]: 6.2 ng/mL
concentration at 60 min [4, 25]: 2.4 ng/mL
concentration at 120 min [4, 23]: 29.8 ng/mL
concentration at 120 min [4, 26]: 15.5 ng/mL
concentration at 120 min [4, 22]: 33.4 ng/mL
concentration at 120 min [4, 24]: 39.4 ng/mL
concentration at 120 min [4, 25]: 30.7 ng/mL
concentration at 180 min [4, 23]: 22.9 ng/mL
concentration at 180 min [4, 26]: 24.2 ng/mL
concentration at 180 min [4, 22]: 12.3 ng/mL
concentration at 180 min [4, 24]: 27.1 ng/mL
concentration at 180 min [4, 25]: 27.9 ng/mL
concentration at 240 min [4, 23]: 18 ng/mL
concentration at 240 min [4, 26]: 22.7 ng/mL
concentration at 240 min [4, 22]: 9.2 ng/mL
concentration at 240 min [4, 24]: 20.1 ng/mL
concentration at 240 min [4, 25]: 20.1 ng/mL
Cmax [4, 27]: 32 ng/mL
Tmax [4, 27]: 2 h
Cmax [4, 28]: 24 ng/mL
Tmax [4, 28]: 3 h
Cmax [4, 29]: 33 ng/mL
Tmax [4, 29]: 2 h
Cmax [4, 30]: 39 ng/mL
Tmax [4, 30]: 2 h
Cmax [4, 31]: 31 ng/mL
Tmax [4, 31]: 2 h
AUC [4, 27]: 68 ng·h/mL
AUC [4, 28]: 59 ng·h/mL
AUC [4, 29]: 64 ng·h/mL
AUC [4, 30]: 83 ng·h/mL
AUC [4, 31]: 71 ng·h/mL

From PMC9545781 (British Journal of Clinical Pharmacology, 2022)
